Results reported in patent US12122785B2, “Substituted pyridines, pyridazines, pyrimidines, and 1,2,4-triazines as TYK2 inhibitors” (Sudo Biosciences Limited, priority 2021, dated 2024).
pIC50: −log10 of the molar value.

Assays:
[1] = system: TYK2 pseudokinase (JH2); IFNα-stimulated HEK-Blue IFNα/β cells; assay: HEK-Blue IFNα/β reporter assay (STAT1-inducible SEAP) for profiling TYK2 pseudokinase (JH2) inhibition; format: cell-based; settings: 1 ng/mL human recombinant IFNα, SEAP readout, read-out: IFNα (TYK2 inhibitory activity, IC50)
Procedure, shortened: (§1)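 STAT-inducible SEAP read-out: IFNα/β cells got 1 ng/mL IFNα for 16-18 h and IL-23 cells got 10 ng/mL IL-23 for 22-24 hours. In both cases the cytokine followed a 60 min preincubation with titrated test compound.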

[2] = system: IL-2-stimulated HEK-Blue IL-2 reporter cells; assay: HEK-Blue IL-2 reporter assay (STAT5-inducible SEAP) for determining selectivity; format: cell-based; settings: 4 ng/mL human recombinant IL-2, 24 hours
Procedure, shortened: (§2)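 Cells were plated for 20-22 h, then pretreated with serially diluted compound for 60 min. They were stimulated for 24 h with 4 ng/mL human recombinant IL-2 or 50 ng/mL human recombinant IFNγ, and SEAP induction was read with QUANTI-Blue.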

[3] = system: IFNγ-stimulated HEK-Blue IFNγ reporter cells; assay: HEK-Blue IFNγ reporter assay (STAT1-inducible SEAP) for determining selectivity; format: cell-based; settings: 50 ng/mL human recombinant IFNγ, 24 hours, read-out: IFN-γ SEAP selectivity assay IC50
Procedure, shortened: as §2

JAK1 kinase domain (JH1) = biological target: T1, JAK1 kinase domain (JH1) (Homo sapiens, UniProt P23458); assay: HTRF-based selectivity assay, JAK1 catalytic domain; format: biochemical; settings: 21.43 μM ATP, read-out: JAK-JHI (IC50)
T1 construct: recombinant purified His or GST-tagged catalytic domain for each enzyme; made in house
Method: (§3) Example B-2: HTRF-Based Selectivity Assay
(§4) The ability of compounds to inhibit the activity of JAK1, JAK2, JAK3 and TYK2 is measured using a recombinant purified His or GST-tagged catalytic domain for each enzyme (JAK1, JAK2 and TYK2 are generated in-house; JAK3 was purchased from Carna biosciences, Cat #08-046) in an HTRF format biochemical assay. The reactions employs a commercial peptide substrate from Cisbio (Cat #62TK0PEC). The basic assay protocol is as follows: first, 2.5 μL of diluted compounds (4×) in DMSO are dispensed into a 384-well Optiplate. Next, 2.5 μL of enzyme (final concentrations for enzymes are: TYK2—700 ng/mL, JAK1—80.6 ng/mL, JAK2—2.1 ng/mL and JAK3—171.8 ng/mL) is added and incubated at RT for 5-20 min. Finally, 5 μl of mixture of 2×ATP [Final concentration 20 μM for TYK2, 21.43 μM for JAK1, 14.7 μM for JAK2 and 2.12 μM for JAK3]+2× Substrate [Final concentration 217 nM for TYK2, 454.7 nM for JAK1, 200 nM for JAK2 and 257.4 nM for JAK3] is added to 384 well Optiplate. Composition of Kinase assay buffer used in the assay is as follows: HEPES 50 mM, EGTA 1 mM, MgCl2 10 mM, DTT 2 mM, Tween-20 0.01% and water. Then the plates are shaken and then incubated at 26.5° C. for 60 min.

JAK2 kinase domain (JH1) = biological target: T2, JAK2 kinase domain (JH1) (Homo sapiens, UniProt O60674); assay: HTRF-based selectivity assay, JAK2 catalytic domain; format: biochemical; settings: 14.7 μM ATP
T2 construct: recombinant purified His or GST-tagged catalytic domain for each enzyme; made in house
Method: as §3, §4

JAK3 kinase domain (JH1) = biological target: T3, JAK3 kinase domain (JH1) (Homo sapiens, UniProt P52333); assay: HTRF-based selectivity assay, JAK3 catalytic domain; format: biochemical; settings: 2.12 μM ATP
T3 construct: recombinant purified His or GST-tagged catalytic domain for each enzyme; purchased Carna biosciences 08-046
Method: as §3, §4

TYK2 kinase domain (JH1) = biological target: T4, TYK2 kinase domain (JH1) (Homo sapiens, UniProt P29597); assay: HTRF-based selectivity assay, TYK2 catalytic domain; format: biochemical; settings: 20 μM ATP
T4 construct: recombinant purified His or GST-tagged catalytic domain for each enzyme; made in house
T4 sequence (P29597 897-1176 limits assumed): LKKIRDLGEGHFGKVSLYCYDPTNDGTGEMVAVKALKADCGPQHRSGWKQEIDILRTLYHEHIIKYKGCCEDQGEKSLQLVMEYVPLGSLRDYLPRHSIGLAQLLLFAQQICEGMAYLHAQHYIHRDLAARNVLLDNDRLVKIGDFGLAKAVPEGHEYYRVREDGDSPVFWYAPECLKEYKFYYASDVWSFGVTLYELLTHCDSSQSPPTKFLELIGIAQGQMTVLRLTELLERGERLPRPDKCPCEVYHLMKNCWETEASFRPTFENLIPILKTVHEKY
Method: as §3, §4

[4] = system: TYK2 pseudokinase (JH2); IL-23-stimulated HEK-Blue IL-23 cells; assay: HEK-Blue IL-23 reporter assay (STAT3-inducible SEAP) for profiling TYK2 pseudokinase (JH2) inhibition; format: cell-based; settings: 10 ng/mL human recombinant IL-23, SEAP readout, read-out: IL23 (TYK2 inhibitory activity, IC50)
Procedure, shortened: as §1

T3 sequence (P52333 822-1111 limits assumed): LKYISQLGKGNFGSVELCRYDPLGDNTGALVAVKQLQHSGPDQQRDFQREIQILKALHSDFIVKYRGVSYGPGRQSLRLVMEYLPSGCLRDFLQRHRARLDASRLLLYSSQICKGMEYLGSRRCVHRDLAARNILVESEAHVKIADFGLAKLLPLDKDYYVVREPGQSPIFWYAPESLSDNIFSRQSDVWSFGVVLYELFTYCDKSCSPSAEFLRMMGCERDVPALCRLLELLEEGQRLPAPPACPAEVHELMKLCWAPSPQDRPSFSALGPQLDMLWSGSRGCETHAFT
T2 sequence (O60674 849-1124 limits assumed): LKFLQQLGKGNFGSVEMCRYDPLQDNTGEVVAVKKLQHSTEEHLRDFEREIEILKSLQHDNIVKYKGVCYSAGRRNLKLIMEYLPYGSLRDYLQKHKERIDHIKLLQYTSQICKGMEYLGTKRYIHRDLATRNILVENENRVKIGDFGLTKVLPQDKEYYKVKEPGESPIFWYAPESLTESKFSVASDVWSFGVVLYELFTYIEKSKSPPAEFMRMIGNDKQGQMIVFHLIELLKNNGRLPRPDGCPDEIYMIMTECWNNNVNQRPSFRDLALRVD
T1 sequence (P23458 875-1153 limits assumed): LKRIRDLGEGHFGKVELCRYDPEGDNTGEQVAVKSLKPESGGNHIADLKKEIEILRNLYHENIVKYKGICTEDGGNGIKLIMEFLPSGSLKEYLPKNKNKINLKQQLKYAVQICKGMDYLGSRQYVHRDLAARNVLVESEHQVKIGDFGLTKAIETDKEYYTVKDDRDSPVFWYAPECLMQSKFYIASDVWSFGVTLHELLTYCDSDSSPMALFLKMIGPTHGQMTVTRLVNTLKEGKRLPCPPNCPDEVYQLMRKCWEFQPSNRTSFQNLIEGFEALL

pIC50 (JAK1 kinase domain (JH1)) | pIC50 (JAK2 kinase domain (JH1)) | pIC50 (JAK3 kinase domain (JH1)) | pIC50 (TYK2 kinase domain (JH1)) | Compound | pIC50 [1] | pIC50 [2] | pIC50 [3] | pIC50 [4]
< 6.00 | < 6.00 | < 6.00 | < 6.00 | CNC(=O)c1nnc(NC(=O)C2CC2)cc1Nc1cccc2c1OCc1cn(C)nc1-2 [Compound 2, 6-(cyclopropanecarboxamido)-N-methyl-4-((2-methyl-2,4-dihydrochromeno [4,3-c]pyrazol-6-yl)amino)pyridazine-3-carboxamide] | 6.00 to 6.52 | < 6.00 | 6.00 to 6.52 | 6.52 to 7.52
< 6.00 | < 6.00 | < 6.00 | < 6.00 | [2H]C([2H])([2H])NC(=O)c1cnc(Nc2ccc(F)cn2)cc1Nc1cccc2c1OCc1cn(C)nc1-2 [Compound 7, 6-((5-fluoropyridin-2-yl)amino)-N-(methyl-d3)-4-((2-methyl-2,4-dihydrochromeno[4,3-c]pyrazol-6-yl)amino)nicotinamide] | 6.00 to 6.52 | < 6.00 | 6.00 to 6.52 | 6.52 to 7.52
< 6.00 | < 6.00 | < 6.00 | < 6.00 | [2H]C([2H])([2H])NC(=O)c1cnc(NC(=O)C2CC2)cc1Nc1cccc2c1N(C)C([2H])([2H])c1cn(C)nc1-2 [Compound 35, 6-(cyclopropanecarboxamido)-4-((2,5-dimethyl-4,5-dihydro-2H-pyrazolo[4,3-c]quinolin-6-yl-4,4-d2)amino)-N-(methyl-d3)nicotinamide] | > 7.52 | < 6.00 | – | > 7.52
< 6.00 | < 6.00 | < 6.00 | < 6.00 | [2H]C([2H])([2H])NC(=O)c1cnc(NC(=O)[C@H]2C[C@H]2F)cc1Nc1cccc2c1N(C)Cc1cn(C)nc1-2 (single isomer, unassigned) [Compound 32] | > 7.52 | < 6.00 | – | > 7.52
< 6.00 | < 6.00 | < 6.00 | < 6.00 | [2H]C([2H])([2H])NC(=O)c1cnc(Nc2ccc(F)cn2)cc1Nc1cccc2c1N(C)Cc1cn(C)nc1-2 [Compound 13, 4-((2,5-dimethyl-4,5-dihydro-2H-pyrazolo[4,3-c]quinolin-6-yl)amino)-6-((5-fluoropyridin-2-yl)amino)-N-(methyl-d3)nicotinamide] | > 7.52 | < 6.00 | 6.00 to 6.52 | > 7.52
< 6.00 | < 6.00 | < 6.00 | < 6.00 | [2H]C([2H])([2H])NC(=O)c1cnc(Nc2cc(C)nc(C)n2)cc1Nc1cccc2c1OCc1cn(C)nc1-2 [Compound 9, 6-((2,6-dimethylpyrimidin-4-yl)amino)-N-(methyl-d3)-4-((2-methyl-2,4-dihydrochromeno[4,3-c]pyrazol-6-yl)amino)nicotinamide] | 6.52 to 7.52 | < 6.00 | 6.00 to 6.52 | > 7.52
< 6.00 | < 6.00 | < 6.00 | < 6.00 | [2H]C([2H])([2H])NC(=O)c1cnc(NC(=O)C2CC2)cc1Nc1cccc2c1N(C([2H])([2H])[2H])Cc1cn(C)nc1-2 [Compound 26, 6-(cyclopropanecarboxamido)-N-(methyl-d3)-4-((2-methyl-5-(methyl-d3)-4,5-dihydro-2H-pyrazolo[4,3-c]quinolin-6-yl)amino)nicotinamide] | > 7.52 | < 6.00 | 6.52 to 7.52 | > 7.52
< 6.00 | < 6.00 | < 6.00 | < 6.00 | [2H]C([2H])([2H])NC(=O)c1nnc(NC(=O)C2CC2)cc1Nc1nccc2c1N(C)Cc1cn(C)nc1-2 [Compound 65, 6-(cyclopropanecarboxamido)-4-((2,5-dimethyl-4,5-dihydro-2H-pyrazolo[4,3-c][1,7]naphthyridin-6-yl)amino)-N-(methyl-d3)pyridazine-3-carboxamide] | > 7.52 | < 6.00 | 6.52 to 7.52 | > 7.52
< 6.00 | 6.52 to 7.52 | 6.00 to 6.52 | < 6.00 | [2H]C([2H])([2H])NC(=O)c1nnc(NC(=O)C2CC2)cc1Nc1nccc2c1N(C)[C@H](C)c1cn(C)nc1-2 (single isomer, unassigned) [Compound 70] | > 7.52 | < 6.00 | – | > 7.52
< 6.00 | < 6.00 | < 6.00 | 6.00 to 6.52 | CNC(=O)c1nnc(Nc2ccc(F)cn2)cc1Nc1cccc2c1OCc1cn(C)nc1-2 [Compound 1, 6-((5-fluoropyridin-2-yl)amino)-N-methyl-4-((2-methyl-2,4-dihydrochromeno[4,3-c]pyrazol-6-yl)amino)pyridazine-3-carboxamide] | 6.52 to 7.52 | 6.00 to 6.52 | 6.00 to 6.52 | 6.52 to 7.52
< 6.00 | < 6.00 | < 6.00 | < 6.00 | COC(=O)c1cnc(NC(=O)C2CC2)cc1Nc1cccc2c1N(C)Cc1cn(C)nc1-2 [Compound 60, methyl 6-(cyclopropanecarboxamido)-4-((2,5-dimethyl-4,5-dihydro-2H-pyrazolo[4,3-c]quinolin-6-yl)amino)nicotinate] | > 7.52 | < 6.00 | < 6.00 | > 7.52
< 6.00 | < 6.00 | < 6.00 | < 6.00 | CNC(=O)c1nnc(NC(=O)C2CC2)cc1Nc1cccc2c1OCc1cnn(C)c1-2 [Compound 50, 6-(cyclopropanecarboxamido)-N-methyl-4-((1-methyl-1,4-dihydrochromeno[4,3-c]pyrazol-6-yl)amino)pyridazine-3-carboxamide] | 6.00 to 6.52 | 6.52 to 7.52 | 6.00 to 6.52 | 6.00 to 6.52
< 6.00 | < 6.00 | < 6.00 | < 6.00 | [2H]C([2H])([2H])NC(=O)c1cnc(NC(=O)C2CC2)cc1Nc1cccc2c1OCc1cn(C)nc1-2 [Compound 6, 6-(cyclopropanecarboxamido)-N-(methyl-d3)-4-((2-methyl-2,4-dihydrochromeno[4,3-c]pyrazol-6-yl)amino)nicotinamide] | 6.52 to 7.52 | < 6.00 | < 6.00 | 6.52 to 7.52
< 6.00 | < 6.00 | < 6.00 | < 6.00 | [2H]C([2H])([2H])NC(=O)c1nnc(NC(=O)C2CC2)cc1Nc1nccc2c1N(C)Cc1cc(C)nn1-2 [Compound 68, 6-(cyclopropanecarboxamido)-4-((2,5-dimethyl-4,5-dihydropyrazolo[1,5-a]pyrido[3,4-e]pyrazin-6-yl)amino)-N-(methyl-d3)pyridazine-3-carboxamide] | > 7.52 | < 6.00 | – | > 7.52
< 6.00 | < 6.00 | < 6.00 | < 6.00 | [2H]C([2H])([2H])NC(=O)c1cnc(NC(=O)C2CC2)cc1Nc1cccc2c1N(C)[C@@H](C)c1cn(C)nc1-2 (single isomer, unassigned) [Compound 30] | > 7.52 | – | – | > 7.52
